Experimental data published in patent US20150164910A1, “ANTIVIRAL COMPOUNDS AND METHODS OF USE” (The Regents of the University of Califonia, priority 2012, published 2015).

How the values were obtained:
CVB3-H3 = assay: Plaque reduction assay, CVB3-H3 in HeLa-RW cells; format: cell-based, coxsackievirus B3; settings: compound added 30 min before infection, CVB3-H3 MOI 1, HeLa-RW, 6 hours; log10(titer with DMSO only/titer with inhibitor)
coxsackievirus B3 (CVB3) [1] = assay: Cell viability assay, prevention of cell death caused by CVB3 infection; format: cell-based; settings: for Selectivity index: 50% Cytotoxic concentration/50% activity concentration; for IC50 / EC (peak activity): Enterovirus B; for IC50: read-out: 50% activity concentration (IC50); for EC (peak activity): HeLa-RW cells and CVB3 at low multiplicity of infection, read-out: Peak Activity Conc.
Protocol: (§1) Procedure: Enteroviruses rapidly cause cell death, and a cell viability assay was used to examine the cytotoxicity of each compound and to identify the concentration needed to prevent cell death caused by coxsackievirus B3 (CVB3) infection.
(§2) Compounds were diluted two-fold and added to wells of 384 well plate. HeLa-RW cells were then added (cytotoxicity testing), or cells and CVB3 were added to provide a low multiplicity of infection to determine concentration of peak activity or 50% maximal concentration. Selectivity index is defined as the 50% Cytotoxic concentration/50% activity concentration

[2] = system: eGFP-expressing recombinant CVB3; format: cell-based, coxsackievirus B3; settings: for % of eGFP + cells, 0 Hr: compound added 0 hr post infection at its peak activity concentration, DMSO 26.0; for % of eGFP + cells, 0 Hr / % of eGFP + cells, 1 Hr / % of eGFP + cells, 2 Hr: read 6 hr post infection; for % of eGFP + cells, 1 Hr: compound added 1 hr post infection at its peak activity concentration, DMSO 23.7; for % of eGFP + cells, 2 Hr: compound added 2 hr post infection at its peak activity concentration, DMSO 24.8; for Inhibition of infected cells: eGFP-CVB3 m.o.i=1, compound added at time of infection, 6 hr post infection, 1-(% eGFP+ cells with compound/% with DMSO only)
[3] = system: viral capsid proteins of CVB3; assay: Immunoblot detection of CVB3 viral capsid protein; format: cell-based, coxsackievirus B3; settings: six hours after infection with CVB3; compound added 30 minutes before inoculation; 10 μM fluoxetine in FIG. 2
poliovirus 1 (PV-1) = format: cell-based; design: dose or concentration left out as unconfirmed; settings: HeLa cells, MOI of 1, six hours (FIG. 6)
CVB3 = assay: Time of addition experiment, CVB3 in HeLa cells; format: cell-based, coxsackievirus B3
poliovirus-3 (PV-3) = format: cell-based; design: dose or concentration left out as unconfirmed; settings: HeLa cells, MOI of 1, six hours (FIG. 6)
coxsackievirus B3 (CVB3) [4] = assay: Cell viability assay, prevention of cell death caused by CVB3 infection; format: cell-based; settings: Enterovirus B, HeLa, read-out: 50% effective concentration (EC50), CVB3 replication
HeLa-RW cells = format: cell-based; settings: in words
Protocol: as §1, §2

| Structure (SMILES) | Log10 reduction of virus titer (CVB3-H3) | Selectivity index (coxsackievirus B3 (CVB3) [1]) | IC50 (coxsackievirus B3 (CVB3) [1]) [nM] | EC (peak activity) (coxsackievirus B3 (CVB3) [1]) [µM] | % of eGFP + cells, 0 Hr [2] [%] | % of eGFP + cells, 1 Hr [2] [%] | % of eGFP + cells, 2 Hr [2] [%] | Inhibition of infected cells [2] [%] | viral capsid protein detected by immunoblot [3] | titer of virus produced, PV-1 (poliovirus 1 (PV-1)) | activity when added 2 hours after infection begins (CVB3; virus produced six hours after infection (FIG. 7)) | titer of virus produced, PV-3 (poliovirus-3 (PV-3)) | EC50 (coxsackievirus B3 (CVB3) [4]) [nM] | cytotoxicity to HeLa cells (HeLa-RW cells) | CVB3 replication, compound added 1 hour or more after inoculation (CVB3; added 1 hour or more after inoculation (FIG. 7)) | CVB3 replication, compound added prior to inoculation (CVB3; added prior to inoculation of cultures (FIG. 7)) |
| --- | --- | --- | --- | --- | --- | --- | --- | --- | --- | --- | --- | --- | --- | --- | --- | --- |
| NCCC(Oc1ccc(C(F)(F)F)cc1)c1ccccc1 (stereo not drawn) [Compound 74, 3-Phenyl-3-[4-(trifluoromethyl)phenoxy]-1-propanamine] | 4.7 | 10 | 2530 | 6.25 | 0.0 | 0.0 | 0.0 | 100 | no viral protein is detected | – | – | – | – | – | – | – |
| CC(C)n1ncc2c(C(=O)Nc3ccccc3F)cc(-c3cccs3)nc21 [Compound 3, N-(2-Fluorophenyl)-1-isopropyl-6-(2-thienyl)-1H-pyrazolo [3,4-b]pyridine-4-carboxamide] | 4.5 | 175 | 1140 | 3.13 | 0.0 | 0.0 | 0.0 | 100 | – | marked reduction | equivalently active | marked reduction | – | – | – | – |
| COc1ccc(C(=O)N2CCC(C(=O)c3ccc4c(c3)OCCO4)CC2)cc1F [Compound 45, 2,3-Dihydro-1,4-benzodioxin-6-yl [1-(3-fluoro-4-methoxybenzoyl)-4-piperidinyl] methanone] | 2.0 | 125 | 200 | 1.56 | 8.9 | 17.0 | 20.0 | 82.1 | – | – | – | – | 200 | minimally cytotoxic | less potent | markedly reduced |
| COc1ccc(N(Cc2ccc(F)cc2)C(=O)c2ccco2)cc1 [Compound 57, N-(4-Fluorobenzyl)-N-(4-methoxyphenyl)-2-furamide] | 4.3 | 16 | 3130 | 6.25 | 0.0 | 0.0 | 0.0 | 99.7 | – | – | – | – | – | – | – | – |
| CN1c2ccccc2C(=O)NC1c1cc2ccccc2nc1N1CCOCC1 (stereo not drawn) [Compound 23, 1-Methyl-2-[2-(4-morpholinyl)-3-quinolinyl]-2,3-dihydro-4(1H)-quinazolinone] | 4.4 | 54 | 920 | 3.13 | 0.1 | 3.8 | 0.0 | 100 | – | – | – | – | – | – | – | – |
